Test [1] addresses T1, Exodeoxyribonuclease V (Escherichia coli (strain K12), UniProt P04993+P07648+P08394).
T1 sequence (P04993 whole entry): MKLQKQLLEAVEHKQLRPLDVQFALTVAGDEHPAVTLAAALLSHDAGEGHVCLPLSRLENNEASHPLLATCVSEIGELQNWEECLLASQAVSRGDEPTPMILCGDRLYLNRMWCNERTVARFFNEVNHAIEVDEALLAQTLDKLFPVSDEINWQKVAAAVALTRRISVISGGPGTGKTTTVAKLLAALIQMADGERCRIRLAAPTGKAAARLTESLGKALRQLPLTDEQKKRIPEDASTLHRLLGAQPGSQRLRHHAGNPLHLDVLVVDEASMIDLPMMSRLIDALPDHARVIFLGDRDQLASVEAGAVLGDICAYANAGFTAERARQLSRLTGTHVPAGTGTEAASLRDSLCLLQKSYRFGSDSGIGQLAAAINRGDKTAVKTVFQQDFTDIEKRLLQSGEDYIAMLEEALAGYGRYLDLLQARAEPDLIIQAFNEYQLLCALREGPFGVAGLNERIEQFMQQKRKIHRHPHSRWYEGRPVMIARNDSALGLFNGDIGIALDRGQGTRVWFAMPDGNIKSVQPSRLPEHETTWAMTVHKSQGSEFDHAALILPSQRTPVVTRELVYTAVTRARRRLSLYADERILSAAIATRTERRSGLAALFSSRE
T1 sequence (P07648 whole entry): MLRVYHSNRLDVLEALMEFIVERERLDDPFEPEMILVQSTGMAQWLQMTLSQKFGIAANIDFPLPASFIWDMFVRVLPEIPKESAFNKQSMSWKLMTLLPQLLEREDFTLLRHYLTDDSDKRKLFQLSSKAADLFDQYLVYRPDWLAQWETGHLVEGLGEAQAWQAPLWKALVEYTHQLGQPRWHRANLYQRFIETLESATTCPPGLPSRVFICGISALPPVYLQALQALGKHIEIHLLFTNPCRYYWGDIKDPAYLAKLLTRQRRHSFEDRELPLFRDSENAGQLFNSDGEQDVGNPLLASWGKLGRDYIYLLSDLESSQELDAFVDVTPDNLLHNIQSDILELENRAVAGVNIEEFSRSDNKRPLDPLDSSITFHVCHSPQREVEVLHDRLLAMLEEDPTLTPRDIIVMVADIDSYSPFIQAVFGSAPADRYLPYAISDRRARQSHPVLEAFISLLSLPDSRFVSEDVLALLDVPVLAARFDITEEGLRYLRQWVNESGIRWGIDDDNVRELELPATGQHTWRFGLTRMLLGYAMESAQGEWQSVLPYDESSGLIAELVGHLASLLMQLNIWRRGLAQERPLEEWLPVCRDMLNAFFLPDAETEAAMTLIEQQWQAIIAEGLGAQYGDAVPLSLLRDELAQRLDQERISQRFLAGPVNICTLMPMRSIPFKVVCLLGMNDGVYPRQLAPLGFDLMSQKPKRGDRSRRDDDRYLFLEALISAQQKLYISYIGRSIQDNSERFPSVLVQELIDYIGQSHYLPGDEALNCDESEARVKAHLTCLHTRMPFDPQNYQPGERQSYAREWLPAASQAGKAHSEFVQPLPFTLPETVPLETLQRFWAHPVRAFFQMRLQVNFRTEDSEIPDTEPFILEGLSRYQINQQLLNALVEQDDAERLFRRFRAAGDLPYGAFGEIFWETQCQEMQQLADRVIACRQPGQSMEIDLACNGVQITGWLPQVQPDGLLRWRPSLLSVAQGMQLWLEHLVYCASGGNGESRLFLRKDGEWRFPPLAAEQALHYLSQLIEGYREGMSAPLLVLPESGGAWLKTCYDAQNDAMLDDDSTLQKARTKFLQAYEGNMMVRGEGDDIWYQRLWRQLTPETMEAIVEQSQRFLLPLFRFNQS
T1 sequence (P08394 whole entry): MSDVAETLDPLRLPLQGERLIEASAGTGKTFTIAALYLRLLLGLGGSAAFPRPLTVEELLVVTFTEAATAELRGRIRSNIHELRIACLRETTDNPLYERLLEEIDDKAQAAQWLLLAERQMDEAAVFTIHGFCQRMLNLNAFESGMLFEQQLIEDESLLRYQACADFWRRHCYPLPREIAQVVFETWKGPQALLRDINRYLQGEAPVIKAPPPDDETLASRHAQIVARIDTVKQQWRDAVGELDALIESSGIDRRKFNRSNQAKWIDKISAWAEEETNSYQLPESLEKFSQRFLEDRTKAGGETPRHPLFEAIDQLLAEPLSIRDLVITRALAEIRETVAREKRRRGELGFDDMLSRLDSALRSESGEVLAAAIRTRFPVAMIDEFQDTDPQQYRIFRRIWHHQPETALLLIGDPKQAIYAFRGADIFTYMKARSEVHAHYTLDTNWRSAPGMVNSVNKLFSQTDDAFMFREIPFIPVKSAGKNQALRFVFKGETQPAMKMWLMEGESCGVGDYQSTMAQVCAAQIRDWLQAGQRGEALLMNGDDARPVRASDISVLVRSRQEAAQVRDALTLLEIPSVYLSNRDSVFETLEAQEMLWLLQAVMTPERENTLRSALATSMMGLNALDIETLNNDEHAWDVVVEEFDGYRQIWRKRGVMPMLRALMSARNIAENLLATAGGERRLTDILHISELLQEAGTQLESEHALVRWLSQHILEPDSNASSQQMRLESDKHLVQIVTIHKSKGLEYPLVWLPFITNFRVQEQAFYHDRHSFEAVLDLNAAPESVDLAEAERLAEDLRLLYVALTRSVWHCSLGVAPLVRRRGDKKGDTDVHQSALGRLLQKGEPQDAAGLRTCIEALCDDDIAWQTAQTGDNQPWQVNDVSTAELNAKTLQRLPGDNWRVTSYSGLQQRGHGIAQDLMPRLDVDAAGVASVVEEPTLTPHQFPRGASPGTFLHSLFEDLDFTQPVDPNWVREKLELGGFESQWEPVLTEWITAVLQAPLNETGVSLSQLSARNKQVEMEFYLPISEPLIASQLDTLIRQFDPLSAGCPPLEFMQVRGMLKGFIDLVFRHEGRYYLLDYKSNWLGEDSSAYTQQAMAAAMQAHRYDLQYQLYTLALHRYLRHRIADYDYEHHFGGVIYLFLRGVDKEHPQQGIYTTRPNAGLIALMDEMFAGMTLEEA
The test can be described thus: E. coli RecBCD inhibitors, dose response, counter-screen for AddAB inhibitor project, absorbance, V66 E. coli, mutant T4 phage (AID 492957). In kind it is functional, cell-based, Escherichia coli str. K-12 substr. MG1655. In general terms: The purpose of a counterscreen is to sort out artefacts and off-target activity.

Test [2] addresses Eukaryotic translation initiation factor 4E (Mus musculus, UniProt P63073). The test can be described thus: eIF4E–eIF4G protein interaction inhibitors, dose response, biochemical, TR-FRET (AID 855).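 Note: potency for disrupting eIF4E binding to eIF4GI seen as loss of FRET.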 In kind it is functional. Background: In TR-FRET formats the signal depends on donor and acceptor labels being close together.

Each structure is given as a SMILES string. Activity calls are given as the source filed them. The rule behind the calls is not given here.

Eukaryotic translation initiation factor 4E, sequence (P63073 whole entry): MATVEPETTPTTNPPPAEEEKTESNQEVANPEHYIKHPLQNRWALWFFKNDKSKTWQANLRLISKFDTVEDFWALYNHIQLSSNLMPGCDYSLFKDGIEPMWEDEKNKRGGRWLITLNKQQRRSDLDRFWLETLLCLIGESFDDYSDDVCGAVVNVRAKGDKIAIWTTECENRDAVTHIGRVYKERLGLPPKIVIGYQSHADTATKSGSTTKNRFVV

Regarding `CCCC(=O)NC(c1ccc(C(C)C)cc1)c1ccc2cccnc2c1O` (configuration not stated), the IC50 (commonly the point on the concentration scale where inhibition reaches its midpoint) in test [1] is > 119 µM (inactive).

Turning to `Oc1c(Cl)cc(Cl)c(Cl)c1Cc1c(O)c(Cl)cc(Cl)c1Cl` [HEXACHLOROPHENE], the 50% inhibitory concentration (IC50) in test [2] was 17.9 µM (active).
